The results in this text go back to ChEMBL document CHEMBL1201862, “PubChem BioAssay data set” (2004).

Test systems include SNB-75; COLO 205; U-251; SF-295; Malme-3M; K562; KM12; A549; UACC-257; LOX IMVI; SW-620; UO-31; A498; SK-MEL-5; SN12C; HOP-62; SF-539; HL-60; RXF 393; SNB-78.
Holding throughout (test): NCI anticancer screen, dose series, 48 h

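Each compound was tested at five concentrations against cells in 96-well plates for 48 hours. Abbreviation: GI50, concentration required for 50% inhibition of growth.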 Calls of active or inactive are those of the source. No stated cut-off is given here; in the data, active = GI50 up to about 1.1 µM and inactive = higher. Some results are limits rather than exact numbers.

Take `Cc1cc(C)c(C2=NO[C@@H]3[C@H]2C(=O)C=C2N(Cc4ccccc4)CCO[C@@]23O)c(C)c1`: the GI50 in the assay with SNB-75 was > 94.2 µM (inactive); in the assay with COLO 205, > 100 µM (inactive); with U-251, > 100 µM (inactive); in the assay on SF-295, > 100 µM (inactive); in the assay with Malme-3M, > 100 µM (inactive); in the assay on K562, > 100 µM (inactive). Moreover, the GI50 in the assay with KM12, with A549, in the assay on UACC-257, in the assay with LOX IMVI, with SW-620 and with UO-31 was > 100 µM (inactive) each time. For the same molecule, the GI50 in the assay with A498, in the assay on SK-MEL-5, in the assay on SN12C, with HOP-62, with SF-539 and with HL-60 was > 100 µM (inactive) throughout. Also, the GI50 in the assay on RXF 393 and with SNB-78 was > 100 µM (inactive) in each case.
On to `CC1CC=CC(O)C1` (stereo not drawn), for which the GI50 with SNB-75 is > 93.5 µM (inactive); with COLO 205, > 100 µM (inactive); with U-251, > 100 µM (inactive); with SF-295, > 100 µM (inactive); in the assay with Malme-3M it was > 100 µM (inactive); in the assay with K562, > 100 µM (inactive). The GI50 in the assay on KM12, in the assay with A549, in the assay on UACC-257, with LOX IMVI, in the assay with SW-620 and with UO-31 was > 100 µM (inactive) each time. For the same molecule, the GI50 in the assay with A498, in the assay on SK-MEL-5, with SN12C, in the assay on HOP-62, in the assay on SF-539 and in the assay on HL-60 was > 100 µM (inactive) in each case. Also, the GI50 with RXF 393 and in the assay on SNB-78 was > 100 µM (inactive) throughout.
Consider `CN(C)CCNC(=O)c1ccc(Cl)c2ccc(-c3ccccc3)nc12`, for which the GI50 in the assay on SNB-75 was 3.57 µM (inactive); in the assay with COLO 205 it was 1.61 µM (inactive); in the assay with U-251, 2.93 µM (inactive); in the assay on SF-295, 2.96 µM (inactive); in the assay with Malme-3M it was 3.52 µM (inactive); in the assay with K562, 2.27 µM (inactive). Besides, the GI50 is 4.47 µM (inactive) with KM12; 2.92 µM (inactive) in the assay on A549; 4.04 µM (inactive) with UACC-257; 2.34 µM (inactive) in the assay with LOX IMVI; 2.19 µM (inactive) with SW-620; 1.77 µM (inactive) in the assay with UO-31. Also, the GI50 is 5.16 µM (inactive) in the assay with A498; 1.95 µM (inactive) in the assay on SK-MEL-5; 3.85 µM (inactive) in the assay with SN12C; 1.52 µM (inactive) in the assay on HOP-62; 3.66 µM (inactive) in the assay on SF-539; 2.58 µM (inactive) with HL-60. For the same molecule, the GI50 in the assay on RXF 393 was 5.38 µM (inactive); in the assay on SNB-78, 6.32 µM (inactive).
For the molecule `CC(C)C(=O)N1C(=O)O[C@@H](c2ccccc2)[C@H]1C`, the GI50 with SNB-75, in the assay with COLO 205, with U-251, in the assay on SF-295, with Malme-3M and in the assay on K562 was > 100 µM (inactive) each time. Besides, the GI50 in the assay on KM12, in the assay with A549, with UACC-257, in the assay on LOX IMVI, in the assay on UO-31 and in the assay on A498 was > 100 µM (inactive) each time. Moreover, the GI50 with SK-MEL-5 is > 100 µM (inactive); in the assay with SN12C, > 100 µM (inactive); with HOP-62 it was > 100 µM (inactive); with SF-539, > 100 µM (inactive); with HL-60 it was > 100 µM (inactive); in the assay on RXF 393, > 84.1 µM (inactive). In addition, the GI50 in the assay with SNB-78 is > 100 µM (inactive).
As for `COc1cc(C2c3cc4c(cc3[C@@H](Nc3cccc([N+](=O)[O-])c3)C3COC(=O)[C@H]23)OCO4)cc(OC)c1O` (stereo partly drawn), the GI50 in the assay with SNB-75 was 4.1 µM (inactive); in the assay with COLO 205 it was 1.35 µM (inactive); with U-251, 1.94 µM (inactive); with SF-295, 1.36 µM (inactive); in the assay on Malme-3M, 2.62 µM (inactive); with K562, 2.94 µM (inactive). Moreover, the GI50 is 3.01 µM (inactive) in the assay with KM12; 0.2 µM (active) in the assay on A549; 4.73 µM (inactive) with UACC-257; 1.63 µM (inactive) in the assay with LOX IMVI; 2.28 µM (inactive) with SW-620; 2.23 µM (inactive) in the assay with UO-31. Also, the GI50 in the assay with A498 was 1.46 µM (inactive); in the assay with SK-MEL-5, 1.88 µM (inactive); with SN12C it was 2.75 µM (inactive); with HOP-62, 0.796 µM (active); in the assay with SF-539, 1.43 µM (inactive); in the assay on HL-60 it was 1.05 µM (active). Also, the values for the GI50 in the assay on RXF 393 and with SNB-78 were 2.21 µM (inactive) and 5.66 µM (inactive), respectively.
As for `OCC1C2C=CC(O2)[C@H]1CO` (stereo partly drawn), the GI50 with SNB-75, in the assay with COLO 205, in the assay on U-251, in the assay on SF-295, in the assay on Malme-3M and with KM12 was > 100 µM (inactive) in each case. The GI50 in the assay on A549, in the assay on UACC-257, in the assay on LOX IMVI, in the assay on SW-620, with UO-31 and with A498 was > 100 µM (inactive) throughout. Moreover, the GI50 with SK-MEL-5 was > 100 µM (inactive); with SN12C it was > 100 µM (inactive); with HOP-62, > 100 µM (inactive); in the assay on SF-539, > 100 µM (inactive); in the assay on HL-60, > 100 µM (inactive); with RXF 393 it was 42.4 µM (inactive). Moreover, in the assay with SNB-78, the GI50 is > 100 µM (inactive).
